# Active and inactive are the calls of the source.
# Legend:
# [1] = NIH-3T3 fibroblast cytotoxicity, dose response, cytotoxicity control, cell-based, fluorescence, Alamar Blue, secondary assay (AID 2327); type: functional;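 further: NIH-3T3 mouse fibroblasts cultured with fluconazole at 8 µg/mL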
# [2] = C. albicans growth with fluconazole, confirmation, fluorescence, retest (AID 2467); type: functional, cell-based
# [3] = target: Serine/threonine-protein phosphatase (Candida dubliniensis (strain CD36 / CBS 7987 / NCPF 3949 / NRRLY-17841) (Yeast), UniProt B9W6M3); assay: calcineurin pathway inhibitors in yeast reporter, dose response, S. cerevisiae, CDRE-lacZ, luminescence, secondary (AID 2388); type: functional, cell-based;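 further: yeast reporter cells carrying a calcineurin-responsive lacZ construct stimulated with calcium chloride; luminescent beta-galactosidase reporter signal in whole cells rather than isolated phosphatase activity; potency for inhibition where a drop in reporter signal means calcineurin blockade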
# Chain of Serine/threonine-protein phosphatase (B9W6M3 whole entry): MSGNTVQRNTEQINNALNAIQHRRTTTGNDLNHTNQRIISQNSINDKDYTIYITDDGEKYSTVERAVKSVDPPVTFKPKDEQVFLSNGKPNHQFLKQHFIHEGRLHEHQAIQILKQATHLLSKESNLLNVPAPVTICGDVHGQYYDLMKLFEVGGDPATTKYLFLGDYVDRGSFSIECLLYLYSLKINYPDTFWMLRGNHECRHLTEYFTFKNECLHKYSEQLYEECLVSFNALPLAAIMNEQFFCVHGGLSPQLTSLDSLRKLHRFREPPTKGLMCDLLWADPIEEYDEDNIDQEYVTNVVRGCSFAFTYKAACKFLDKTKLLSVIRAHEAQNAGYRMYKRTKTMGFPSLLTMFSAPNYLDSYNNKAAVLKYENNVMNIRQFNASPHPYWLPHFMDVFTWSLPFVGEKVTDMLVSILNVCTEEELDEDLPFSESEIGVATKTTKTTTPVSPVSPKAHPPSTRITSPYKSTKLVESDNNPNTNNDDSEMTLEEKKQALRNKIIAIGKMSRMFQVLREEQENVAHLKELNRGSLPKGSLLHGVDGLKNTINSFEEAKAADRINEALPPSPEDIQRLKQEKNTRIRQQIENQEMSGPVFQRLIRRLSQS
# [4] = target: ATP-dependent molecular chaperone HSP82 (Candida albicans (strain WO-1) (Yeast), UniProt C4YTQ8); assay: loss of DOC-induced GRE-beta-galactosidase reporter signal, dose response, Hsp90 inhibitor project, S. cerevisiae, luminescence (AID 2400); type: functional, cell-based;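 further: beta-galactosidase luminescence from glucocorticoid response element reporter as proxy for Hsp90 function; inhibitor potency where signal loss means Hsp90 inhibition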
# Chain of ATP-dependent molecular chaperone HSP82 (C4YTQ8 whole entry, the tested form may be a part): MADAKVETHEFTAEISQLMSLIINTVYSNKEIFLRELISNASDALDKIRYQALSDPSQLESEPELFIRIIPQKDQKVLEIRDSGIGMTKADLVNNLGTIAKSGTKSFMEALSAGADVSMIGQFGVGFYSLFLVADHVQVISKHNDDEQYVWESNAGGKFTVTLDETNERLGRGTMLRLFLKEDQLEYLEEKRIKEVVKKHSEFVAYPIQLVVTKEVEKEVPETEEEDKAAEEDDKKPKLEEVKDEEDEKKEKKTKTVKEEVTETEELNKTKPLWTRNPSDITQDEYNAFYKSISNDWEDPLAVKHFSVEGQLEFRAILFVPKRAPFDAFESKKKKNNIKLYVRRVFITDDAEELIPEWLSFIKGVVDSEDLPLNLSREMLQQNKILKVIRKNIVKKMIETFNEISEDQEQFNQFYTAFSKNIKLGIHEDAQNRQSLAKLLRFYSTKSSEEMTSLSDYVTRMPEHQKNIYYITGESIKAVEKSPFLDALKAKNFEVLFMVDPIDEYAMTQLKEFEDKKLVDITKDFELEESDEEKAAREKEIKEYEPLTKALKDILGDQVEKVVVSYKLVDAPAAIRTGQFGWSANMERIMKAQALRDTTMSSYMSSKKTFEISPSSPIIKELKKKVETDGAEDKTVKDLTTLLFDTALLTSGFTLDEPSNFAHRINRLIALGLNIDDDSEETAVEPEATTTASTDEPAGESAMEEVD
# [5] = inhibitors of HIV Env-driven cell fusion, dose response, cherry-pick (AID 652057); type: functional, cell-based
# [6] = CEM21 lymphoblast cell cytotoxicity, dose response, cytotoxicity control for viral fusion inhibitor project, CellTiter-Glo luminescence, cherry-picked (AID 652042); type: functional, cell-based;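 further: potency for signal decrease meaning cytotoxicity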
# [7] = ZM109 Env clade C HIV-1 fusion inhibitors, dose response, HeLa effector, CEM target cells, luciferase, cherry-pick (AID 652058); type: functional, cell-based
# [8] = off-target signal loss in HeLa-CEM21 co-culture – HeLa F-luc CTL cells, cherry-picked, counter-screen for HIV-1 Env fusion inhibitor project, dose response (AID 652040); type: functional, cell-based;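 further: potency for signal decrease marking cytotoxic or nonspecific inhibition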
# [9] = inhibitors of clade B AD8 Env fusion, dose response, cell-based, cherry-pick (AID 652062); type: functional;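 further: luciferase signal from cell-cell fusion driven by HIV-1 clade B AD8 Env; potency is for inhibitors of fusion seen as a drop in luminescence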
# HEK293 [10] = assay: cells; details: Homo sapiens
# HEK293 [11] = assay: cells; details: Homo sapiens; remark: listed apart in the source
# [12] = target: Glyceraldehyde-3-phosphate dehydrogenase (Homo sapiens, UniProt P04406)
# Chain of Glyceraldehyde-3-phosphate dehydrogenase (P04406 whole entry): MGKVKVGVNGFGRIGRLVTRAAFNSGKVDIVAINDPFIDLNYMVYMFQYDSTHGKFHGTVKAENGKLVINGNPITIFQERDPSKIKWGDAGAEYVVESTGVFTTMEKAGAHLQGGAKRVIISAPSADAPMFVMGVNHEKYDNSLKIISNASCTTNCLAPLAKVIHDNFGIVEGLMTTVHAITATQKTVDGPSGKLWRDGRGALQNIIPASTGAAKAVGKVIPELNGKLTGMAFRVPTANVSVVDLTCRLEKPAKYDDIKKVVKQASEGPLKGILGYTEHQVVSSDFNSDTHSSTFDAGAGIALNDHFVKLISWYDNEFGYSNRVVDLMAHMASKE
# [13] = target: Alkaline phosphatase, placental type (Homo sapiens, UniProt P05187); assay: PLAP enzyme inhibitors, confirmation, biochemical, luminescence (AID 1512); type: functional
# Chain of Alkaline phosphatase, placental type (P05187 whole entry): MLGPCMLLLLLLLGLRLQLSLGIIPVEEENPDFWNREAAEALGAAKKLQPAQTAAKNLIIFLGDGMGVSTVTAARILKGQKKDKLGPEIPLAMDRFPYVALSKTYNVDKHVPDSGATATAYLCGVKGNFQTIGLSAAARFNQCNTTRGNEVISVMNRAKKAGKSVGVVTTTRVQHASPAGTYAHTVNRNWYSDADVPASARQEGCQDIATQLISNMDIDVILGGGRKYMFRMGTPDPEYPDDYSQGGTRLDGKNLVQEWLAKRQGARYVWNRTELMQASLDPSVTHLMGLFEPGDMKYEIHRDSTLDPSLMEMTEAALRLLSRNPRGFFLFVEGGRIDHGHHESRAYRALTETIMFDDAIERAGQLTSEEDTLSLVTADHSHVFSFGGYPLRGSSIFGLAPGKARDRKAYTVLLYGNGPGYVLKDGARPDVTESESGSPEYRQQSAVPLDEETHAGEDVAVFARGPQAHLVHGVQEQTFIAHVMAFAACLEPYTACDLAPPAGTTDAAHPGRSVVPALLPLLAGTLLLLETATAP
# [14] = target: T1, Alkaline phosphatase, tissue-nonspecific isozyme (Homo sapiens, UniProt P05186); assay: human TNAP enzyme inhibitors, SAR follow-up, biochemical, luminescent, dose response (AID 1056)
# T1 sequence (P05186 whole entry): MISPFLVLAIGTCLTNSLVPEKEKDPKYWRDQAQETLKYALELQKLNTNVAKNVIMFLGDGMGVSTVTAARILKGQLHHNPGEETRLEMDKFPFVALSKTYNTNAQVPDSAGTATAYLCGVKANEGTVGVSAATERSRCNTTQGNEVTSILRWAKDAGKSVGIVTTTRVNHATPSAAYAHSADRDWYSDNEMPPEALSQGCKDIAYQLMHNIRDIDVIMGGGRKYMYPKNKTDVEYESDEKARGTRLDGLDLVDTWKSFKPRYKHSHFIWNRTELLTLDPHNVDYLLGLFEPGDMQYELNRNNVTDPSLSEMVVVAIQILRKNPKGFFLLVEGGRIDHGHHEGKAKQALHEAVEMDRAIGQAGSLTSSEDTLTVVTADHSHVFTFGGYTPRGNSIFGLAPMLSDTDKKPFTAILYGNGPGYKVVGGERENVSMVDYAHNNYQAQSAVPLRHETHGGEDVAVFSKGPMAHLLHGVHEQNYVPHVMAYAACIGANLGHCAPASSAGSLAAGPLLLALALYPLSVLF
# [15] = insulin promoter down-regulators in MIN6 cells, imaging, high-content screening, mouse beta cells (AID 1628); type: functional
# [16] = cytotoxicity in MIN6 insulinoma cells, dose response, cytotoxicity control, cell-based, mouse insulinoma (AID 2122); type: functional;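 further: confirmatory high-throughput counterscreen run to flag cytotoxic compounds; mouse MIN-6 beta cells carrying an insulin promoter eGFP reporter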
# [17] = inhibitors of intracellular T. cruzi replication, confirmation, NIH3T3 host cells, beta-gal luminescence (AID 2044); type: functional, cell-based;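 further: intracellular parasites grown in NIH/3T3 mouse fibroblasts as host cells; luminescent beta-galactosidase reporter signal from transgenic T. cruzi replicating inside host cells; inhibitors lower the luminescence signal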
# [18] = cytotoxicity toward NIH3T3 fibroblasts, dose response, counter-screen, cell-based, ATP luminescence, mouse fibroblasts (AID 2010); type: functional;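 further: cells exposed to compound for about 90 hours before reading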
# INS1 = assay: beta cell apoptosis inhibitors, cytokine rescue, dose response, luminescence, retest (AID 449756); type: functional, cell-based; details: Rattus norvegicus;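 further: cell death triggered by IL-1 beta plus TNF-alpha plus IFN-gamma mixture; protective hits raise ATP signal compared with cytokine alone wells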
# [19] = target: Voltage-dependent T-type calcium channel subunit alpha-1H (Homo sapiens, UniProt O95180); type: functional;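 further: channel activity triggered by adding a high calcium stimulation buffer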
# [20] = mammalian cell cytotoxicity, dose response, cytotoxicity control, plate reader, cherry-pick samples (AID 504397); type: functional, cell-based
# [21] = target: T2, Corticotropin-releasing factor receptor 2/Corticotropin-releasing factor-binding protein (Homo sapiens, UniProt P24387+Q13324); assay: Dose Response confirmation of uHTS hits for small molecule antagonists of the CRF-binding protein and CRF-R2 receptor complex.; type: functional; details: read-out: IC50_Mean
# T2 sequence (Q13324 whole entry): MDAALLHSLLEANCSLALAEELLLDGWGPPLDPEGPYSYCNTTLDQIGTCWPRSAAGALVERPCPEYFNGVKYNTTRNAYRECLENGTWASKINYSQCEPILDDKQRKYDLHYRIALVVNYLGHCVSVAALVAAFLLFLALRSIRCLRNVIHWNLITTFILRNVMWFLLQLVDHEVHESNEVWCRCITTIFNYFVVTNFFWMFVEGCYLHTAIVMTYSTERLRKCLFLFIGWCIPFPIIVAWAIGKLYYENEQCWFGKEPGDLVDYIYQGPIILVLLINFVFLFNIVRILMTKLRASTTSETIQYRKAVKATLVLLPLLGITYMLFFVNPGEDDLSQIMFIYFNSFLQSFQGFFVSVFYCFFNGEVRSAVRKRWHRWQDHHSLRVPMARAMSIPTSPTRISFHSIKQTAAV
# T2 sequence (P24387 whole entry): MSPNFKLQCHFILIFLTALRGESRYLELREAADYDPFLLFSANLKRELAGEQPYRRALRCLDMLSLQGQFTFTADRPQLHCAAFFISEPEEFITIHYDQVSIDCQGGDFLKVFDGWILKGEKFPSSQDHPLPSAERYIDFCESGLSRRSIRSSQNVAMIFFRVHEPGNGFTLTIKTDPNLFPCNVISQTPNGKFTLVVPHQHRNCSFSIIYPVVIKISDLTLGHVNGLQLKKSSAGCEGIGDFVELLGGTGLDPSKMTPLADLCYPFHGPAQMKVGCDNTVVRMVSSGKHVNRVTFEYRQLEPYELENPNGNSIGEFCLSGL
# [22] = target: T2, Corticotropin-releasing factor receptor 2/Corticotropin-releasing factor-binding protein; assay: activators of CRF receptor 2 with binding protein – uHTS hits, confirmation (AID 602473); type: functional; details: read-out: EC50_Mean
# Escherichia coli = assay: microbe, parasite or virus in culture
# [23] = target: T3, G-protein coupled receptor 35 (Homo sapiens, UniProt Q9HC97); assay: SAR analysis of Agonists of the GPR35 Receptor using an Image-Based Assay - Set 4. [Related pubchem assays (depositor defined):AID2013, AID2026]; type: functional
# T3 sequence (Q9HC97 whole entry): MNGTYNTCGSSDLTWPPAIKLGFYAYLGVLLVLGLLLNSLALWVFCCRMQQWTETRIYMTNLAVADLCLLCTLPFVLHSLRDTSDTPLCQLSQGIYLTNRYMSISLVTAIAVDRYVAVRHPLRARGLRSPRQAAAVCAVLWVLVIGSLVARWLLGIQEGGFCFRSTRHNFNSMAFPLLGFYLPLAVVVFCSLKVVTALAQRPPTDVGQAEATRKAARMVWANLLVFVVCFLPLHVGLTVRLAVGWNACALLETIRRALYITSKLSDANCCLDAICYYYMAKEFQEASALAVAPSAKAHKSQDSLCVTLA
# Cannabinoid receptor 1 [24] = target: T4, Cannabinoid receptor 1 (Homo sapiens, UniProt P21554); assay: SAR analysis of agonists of the Cannabinoid Receptor 1 using an Image-Based Assay - Set 4. [Related pubchem assays (depositor defined):AID2013, AID2026]; type: functional
# T4 sequence (P21554 whole entry): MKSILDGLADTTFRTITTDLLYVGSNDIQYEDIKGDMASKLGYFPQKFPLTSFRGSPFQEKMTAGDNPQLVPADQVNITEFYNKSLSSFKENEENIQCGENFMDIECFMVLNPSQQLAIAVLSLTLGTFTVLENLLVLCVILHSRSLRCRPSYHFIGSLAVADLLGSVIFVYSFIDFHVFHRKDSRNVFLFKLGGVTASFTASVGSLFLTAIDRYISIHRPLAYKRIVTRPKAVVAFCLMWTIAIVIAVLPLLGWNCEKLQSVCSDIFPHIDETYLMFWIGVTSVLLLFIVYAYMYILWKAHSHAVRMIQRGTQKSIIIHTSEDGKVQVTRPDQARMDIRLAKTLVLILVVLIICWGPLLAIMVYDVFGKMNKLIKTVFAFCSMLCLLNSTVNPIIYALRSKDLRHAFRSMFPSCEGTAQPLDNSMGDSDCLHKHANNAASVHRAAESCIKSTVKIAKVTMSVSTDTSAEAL
# [25] = target: T3, G-protein coupled receptor 35; assay: SAR analysis of Antagonists of the GPR35 Receptor using an Image-Based Assay - Set 6. [Related pubchem assays (depositor defined):AID2013, AID2026]; type: functional
# Cannabinoid receptor 1 [26] = target: T4, Cannabinoid receptor 1; assay: SAR analysis of antagonists of the Cannabinoid Receptor 1 using an Image-Based Assay - Set 4. [Related pubchem assays (depositor defined):AID2013, AID2026]; type: functional
# [27] = target: G-protein coupled receptor 55 (Homo sapiens, UniProt Q9Y2T6); assay: SAR Analysis of Selective Antagonists of GPR55 using an Image-Based Assay - Set 4. [Related pubchem assays (depositor defined):AID2013, AID2026]; type: functional;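 further: antagonism of response to 5 µM lysophosphatidylinositol agonist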
# Chain of G-protein coupled receptor 55 (Q9Y2T6 whole entry): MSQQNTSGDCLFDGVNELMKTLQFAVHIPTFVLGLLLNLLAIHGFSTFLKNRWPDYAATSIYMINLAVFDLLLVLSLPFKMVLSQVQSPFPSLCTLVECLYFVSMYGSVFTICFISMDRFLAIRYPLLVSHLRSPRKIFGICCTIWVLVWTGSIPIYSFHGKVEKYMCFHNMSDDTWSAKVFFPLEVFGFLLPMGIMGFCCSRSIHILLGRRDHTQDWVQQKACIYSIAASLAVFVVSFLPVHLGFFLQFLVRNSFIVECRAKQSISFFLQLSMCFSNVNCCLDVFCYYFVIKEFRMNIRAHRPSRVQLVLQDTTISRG
# Cannabinoid receptor 2 [28] = target: T5, Cannabinoid receptor 2 (Homo sapiens, UniProt P34972); assay: SAR analysis of antagonists of the Cannabinoid Receptor 2 using an Image-Based Assay - Set 3. [Related pubchem assays (depositor defined):AID2013, AID2026]; type: functional
# T5 sequence (P34972 whole entry): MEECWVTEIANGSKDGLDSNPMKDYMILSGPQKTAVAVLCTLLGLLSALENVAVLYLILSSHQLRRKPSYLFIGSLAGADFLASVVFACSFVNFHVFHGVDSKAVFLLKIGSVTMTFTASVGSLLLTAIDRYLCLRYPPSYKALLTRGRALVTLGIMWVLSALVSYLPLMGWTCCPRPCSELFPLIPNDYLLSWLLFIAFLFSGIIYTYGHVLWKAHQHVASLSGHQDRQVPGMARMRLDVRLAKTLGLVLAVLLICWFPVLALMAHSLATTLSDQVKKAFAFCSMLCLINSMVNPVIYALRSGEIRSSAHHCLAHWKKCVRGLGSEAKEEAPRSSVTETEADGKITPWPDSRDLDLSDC
# Cannabinoid receptor 2 [29] = target: T5, Cannabinoid receptor 2; assay: SAR analysis of agonists of the Cannabinoid Receptor 2 using an Image-Based Assay - Set 3. [Related pubchem assays (depositor defined):AID2013, AID2026]; type: functional
# ORF 73 = target: T6, ORF 73 (Human herpesvirus 8, UniProt O40947); assay: inhibitors of C-LANA binding to LBS DNA, dose response, biochemical, fluorescence polarization, cherry-picked samples (AID 504725); design: species or system Human gammaherpesvirus 8;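 further: fluorescence polarization of a labeled DNA duplex reporting LANA DNA binding; potency is for inhibitors that block LANA binding to the DNA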
# T6 sequence (O40947 whole entry): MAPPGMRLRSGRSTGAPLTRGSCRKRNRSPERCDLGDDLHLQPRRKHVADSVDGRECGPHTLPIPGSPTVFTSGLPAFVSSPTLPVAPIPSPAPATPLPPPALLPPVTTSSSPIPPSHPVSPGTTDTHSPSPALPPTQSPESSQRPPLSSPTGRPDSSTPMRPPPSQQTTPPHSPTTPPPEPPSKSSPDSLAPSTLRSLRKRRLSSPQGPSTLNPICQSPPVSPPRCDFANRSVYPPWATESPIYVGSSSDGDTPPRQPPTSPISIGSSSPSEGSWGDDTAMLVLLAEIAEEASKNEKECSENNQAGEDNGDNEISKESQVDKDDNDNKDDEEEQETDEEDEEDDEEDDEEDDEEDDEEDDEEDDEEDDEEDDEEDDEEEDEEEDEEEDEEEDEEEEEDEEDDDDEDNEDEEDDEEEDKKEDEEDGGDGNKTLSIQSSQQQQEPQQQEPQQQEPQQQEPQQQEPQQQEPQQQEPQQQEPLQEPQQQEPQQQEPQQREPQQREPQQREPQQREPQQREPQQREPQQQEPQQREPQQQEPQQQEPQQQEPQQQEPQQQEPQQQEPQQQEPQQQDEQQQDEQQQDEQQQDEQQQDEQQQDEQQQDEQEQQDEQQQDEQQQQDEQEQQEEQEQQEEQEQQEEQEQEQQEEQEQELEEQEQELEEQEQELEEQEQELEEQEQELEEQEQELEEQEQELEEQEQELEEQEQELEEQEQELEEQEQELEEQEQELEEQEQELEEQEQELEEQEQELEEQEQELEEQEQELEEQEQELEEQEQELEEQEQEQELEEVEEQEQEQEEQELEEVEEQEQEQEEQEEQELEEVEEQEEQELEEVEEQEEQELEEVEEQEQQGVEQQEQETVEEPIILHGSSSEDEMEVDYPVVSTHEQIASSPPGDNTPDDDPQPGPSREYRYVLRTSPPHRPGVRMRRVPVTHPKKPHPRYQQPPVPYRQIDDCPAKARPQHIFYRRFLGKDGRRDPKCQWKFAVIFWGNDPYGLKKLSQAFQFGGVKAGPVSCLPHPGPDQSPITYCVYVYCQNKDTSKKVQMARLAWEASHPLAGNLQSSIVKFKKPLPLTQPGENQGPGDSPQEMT
# Keap1/Nrf2 = Keap1/Nrf2 (Homo sapiens, UniProt Q14145); assay: Keap1-Nrf2 protein-protein interaction inhibitors, dose response, biochemical, fluorescence polarization, cherry-picked samples (AID 588683)
# Chain of Keap1/Nrf2 (Q16236 whole entry): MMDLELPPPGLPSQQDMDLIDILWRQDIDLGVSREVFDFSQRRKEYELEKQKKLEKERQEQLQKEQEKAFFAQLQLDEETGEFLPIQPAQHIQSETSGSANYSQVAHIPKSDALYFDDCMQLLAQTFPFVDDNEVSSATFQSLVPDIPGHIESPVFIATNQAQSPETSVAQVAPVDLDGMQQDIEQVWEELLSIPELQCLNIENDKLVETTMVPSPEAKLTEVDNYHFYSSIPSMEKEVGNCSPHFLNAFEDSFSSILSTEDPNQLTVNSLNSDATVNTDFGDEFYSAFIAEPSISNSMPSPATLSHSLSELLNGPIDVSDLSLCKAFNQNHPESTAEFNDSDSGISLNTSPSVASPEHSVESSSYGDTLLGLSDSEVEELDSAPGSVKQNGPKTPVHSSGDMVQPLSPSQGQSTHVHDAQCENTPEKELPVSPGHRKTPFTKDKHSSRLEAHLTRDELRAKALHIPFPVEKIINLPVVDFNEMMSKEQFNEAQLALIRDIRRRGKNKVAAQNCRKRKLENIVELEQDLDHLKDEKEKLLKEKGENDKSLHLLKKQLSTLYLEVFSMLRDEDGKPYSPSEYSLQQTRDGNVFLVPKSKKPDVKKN
# Chain of Keap1/Nrf2 (Q14145 whole entry): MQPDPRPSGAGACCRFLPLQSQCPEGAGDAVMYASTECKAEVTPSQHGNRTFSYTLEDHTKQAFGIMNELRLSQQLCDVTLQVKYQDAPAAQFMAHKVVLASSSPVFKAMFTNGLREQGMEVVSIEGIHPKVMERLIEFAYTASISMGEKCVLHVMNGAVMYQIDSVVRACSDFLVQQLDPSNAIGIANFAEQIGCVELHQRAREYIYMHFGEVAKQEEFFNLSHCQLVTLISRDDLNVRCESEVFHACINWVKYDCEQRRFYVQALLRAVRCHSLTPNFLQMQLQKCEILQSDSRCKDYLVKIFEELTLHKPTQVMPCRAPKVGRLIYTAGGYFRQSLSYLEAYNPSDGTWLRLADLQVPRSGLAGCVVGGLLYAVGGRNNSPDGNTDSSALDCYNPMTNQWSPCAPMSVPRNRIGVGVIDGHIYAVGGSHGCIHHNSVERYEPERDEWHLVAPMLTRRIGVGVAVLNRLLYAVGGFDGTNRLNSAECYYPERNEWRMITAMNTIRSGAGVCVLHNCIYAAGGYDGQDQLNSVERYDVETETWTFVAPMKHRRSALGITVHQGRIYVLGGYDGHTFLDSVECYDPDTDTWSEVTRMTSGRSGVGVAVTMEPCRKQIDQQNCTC
compound,measurement,setting,value
CCCCOc1cccc(C2C(C(=O)c3ccc(C)o3)=C(O)C(=O)N2Cc2ccco2)c1 (stereo unspecified),EC50,[1],> 150 µM (inactive)
same,EC50,[2],0.398 µM (active)
same,EC50,[3],> 180 µM (inactive)
same,EC50,[4],16.6 µM (active)
COC(=O)c1c(NC(=O)CN2CCC3(O)CCCCC3C2c2cc(OC)ccc2OC)sc(C)c1C (stereo unspecified),AC50,[5],0.472 µM (active)
same,AC50,[6],48.1 µM (active)
same,AC50,[7],1.15 µM (active)
same,AC50,[8],1.21 µM (active)
same,AC50,[9],3.62 µM (active)
same,EC50,HEK293 [10],> 59.7 µM (inactive)
same,EC50,HEK293 [11],> 59.7 µM (inactive)
COc1cc(CCc2nc(N)nn2-c2ccccc2)cc(OC)c1OC,IC50,[12],> 100 µM (not active)
same,IC50,[13],> 100 µM (inactive)
same,IC50,[14],> 100 µM (inactive)
Cc1ccc(-c2cn3c([n+]2-c2ccccc2)CCC3)cc1,IC50,[15],< 0.25 µM (active)
same,IC50,[16],< 0.25 µM (active)
same,EC50,[17],0.94 µM (active)
same,EC50,[18],> 60 µM (not active)
same,AC50,INS1,2.5 µM (active)
O=C(CN(C1CCCCC1)C1CCCCC1)N1CCc2ccccc2C1,EC50,[19],4.36 µM (active)
same,AC50,[20],204 µM (active)
COC(=O)c1ccc(OC(=O)c2nn(C)cc2Cl)c(OC)c1,IC50,[21],> 47.1 µM (inactive)
same,EC50,[22],> 53 µM (inactive)
same,AC50,Escherichia coli,42.7 µM (active)
Cc1ccc(-c2cc(C(F)F)n3ncc(C(=O)NN4CCCCC4)c3n2)cc1,IC50,[15],2.39 µM (active)
same,IC50,[16],6.4 µM (active)
O=C1CN(c2nc(-c3cccnc3)nc3sc4c(c23)CCCC4)CCN1,EC50,HEK293 [10],> 59.6 µM (inactive)
same,EC50,HEK293 [11],> 59.6 µM (inactive)
Cc1cc(C)cc(Nc2nc(-c3ccc(S(=O)(=O)N4CCCC4)cc3)cs2)c1,AC50,[20],> 350 µM (inactive)
O=C(N1CCC(n2nc(-c3ccccc3)oc2=O)CC1)C1(c2ccccc2)CC1,EC50,[23],> 32 µM (inactive)
same,EC50,Cannabinoid receptor 1 [24],> 32 µM (inactive)
same,IC50,[25],> 32 µM (inactive)
same,IC50,Cannabinoid receptor 1 [26],8.64 µM (active)
same,IC50,[27],17.4 µM (inactive)
same,IC50,Cannabinoid receptor 2 [28],> 32 µM (inactive)
same,EC50,Cannabinoid receptor 2 [29],> 32 µM (inactive)
Cc1ccc(-c2nnc(C)c3nn(-c4ccccc4)cc23)cc1,EC50,[23],> 32 µM (inactive)
same,EC50,Cannabinoid receptor 1 [24],> 32 µM (inactive)
same,IC50,[25],> 32 µM (inactive)
same,IC50,Cannabinoid receptor 1 [26],4.61 µM (active)
same,IC50,[27],> 32 µM (inactive)
same,IC50,Cannabinoid receptor 2 [28],> 32 µM (inactive)
same,EC50,Cannabinoid receptor 2 [29],> 32 µM (inactive)
"O=C(c1ccccc1)c1ccc(O)cc1O [2,4-DIHYDROXYBENZOPHENONE]",AC50,ORF 73,5.38 µM (active)
same,AC50,Keap1/Nrf2,11.1 µM (active)
CC1CCc2c(N3CCC(O)CC3)c(F)cc3c(=O)c(C(=O)O)cn1c23 (stereo unspecified) [NADIFLOXACIN],AC50,Escherichia coli,1.3 µM (active)

# From ChEMBL document CHEMBL1201862, “PubChem BioAssay data set” (2004)
